According to ChEMBL document CHEMBL1151102, “Macrocyclic pyrrolizidine alkaloids from Senecio anonymus. Separation of a complex alkaloid extract using droplet counter-current chromatography” (J Nat Prod, 1988):
Converted amounts (≈) assume the structure as drawn.

Each compound was assayed on A204 (assay: Cytotoxicity against human A204 cells after 24 hrs by soft agar colony forming assay). Settings: A204, 24 h.
Assay type: functional, cell-based

SMILES | IC50 [µg/mL]
C[C@@H]1C/C(=C\CO)C(=O)O[C@@H]2CCN(C)C/C=C(/COC(=O)[C@]1(C)O)C2=O [ANONAMINE] | 153 (≈ 401 µM)
C/C=C1/C[C@@H](C)[C@](O)(CO)C(=O)OC/C2=C/CN(C)CC[C@@H](OC1=O)C2=O [HYDROXYSENKIRKINE] | 360 (≈ 944 µM)
C/C=C1\C[C@@H](C)[C@@](C)(O)C(=O)OCC2=CCN3CC[C@@H](OC1=O)[C@@H]23 [INTEGERRIMINE] | 120 (≈ 358 µM)
C[C@H]1C(=O)O[C@@H]2CCN3CC=C(COC(=O)[C@](C)(O)[C@]1(C)O)[C@H]23 [MONOCROTALINE] | 316 (≈ 971 µM)
C/C=C1/C[C@@H](C)[C@@](C)(O)C(=O)OC/C2=C/CN(C)CC[C@@H](OC1=O)C2=O [NEOSENKIRKINE] | 221 (≈ 605 µM)
C[C@@H]1C[C@@]2(O[C@H]2C)C(=O)O[C@@H]2CCN(C)C/C=C(/COC(=O)[C@]1(C)O)C2=O [OTOSENINE] | 130 (≈ 341 µM)
C/C=C1\C[C@@H](C)[C@](O)(CO)C(=O)OCC2=CCN3CC[C@@H](OC1=O)[C@@H]23 [RETRORSINE] | 120 (≈ 341 µM)
C/C=C1/C[C@@H](C)[C@@](C)(O)C(=O)OCC2=CC[N+]3([O-])CC[C@@H](OC1=O)[C@@H]23 (stereo not given in full) [SENECIONINE N-OXIDE] | 150 (≈ 427 µM)
C/C=C1/C[C@@H](C)[C@@](C)(O)C(=O)OCC2=CCN3CC[C@@H](OC1=O)[C@@H]23 [SENECIONINE] | 150 (≈ 447 µM)
C/C=C1\C[C@@H](C)[C@@](C)(O)C(=O)OC/C2=C/CN(C)CC[C@@H](OC1=O)C2=O [SENKIRKINE] | 260 (≈ 711 µM)
